What was measured:
Format in all cases: cell-based
renal cells [1] = experiment: MTT assay, cell viability of renal cells with or without cisplatin
Procedure: To measure cell viability of renal cells by the Amomi Rotundus Fructus extract and the fraction thereof, MTT assay was performed. First, renal cells were seeded at a density of 1×10^4 cells per well of 96-well plate. After 24 hours, the cells were treated with each 50 μg thereof which was prepared by dilution at three final concentrations (50, 100, 200 μg/ml). After 2 hours, cisplatin was treated at a final concentration of 25 μg/ml, and cells were cultured for 24 hours. After 24 hours, 10 μl of the assay reagent of EZ-Cytox Cell Viability assay kit was added to each well using a Micro multi Pipette, taking care to introduce no bubbles, and reaction was allowed for 4 hours under basic culture conditions. Absorbance at 450 nm was measured. p<0.005 was considered statistically significant.

p53 = experiment: Examination of p53 expression pattern (western blot); settings: single treatment of cisplatin; FIG. 6
Procedure: Cells treated with Amomi Rotundus Fructus extract and/or cisplatin were harvested, and RIPA buffer was added thereto, followed by sonication for cell lysis. Centrifugation was performed at 15,000 rpm for 15 minutes, and the supernatant was obtained, and subjected to protein quantification by BCA assay. The protein was loaded at an amount of 20 μg/10 μl in each well, and 12% SDS-PAGE polyacrylamide gel electrophoresis was performed, and transferred to a nitrocellulose membrane. The membrane was blocked with 5% Skim milk-TBST, and then treated with primary antibody (anti-p53/dilution-1:300). p53 was detected with HRP conjugated anti-mouse IgG (dilution-1:5000) and immune reaction was visualized by ECL. The measurement results are shown as Mean±S.E.M. (standard error of mean) in FIG. 6. Data of the experimental results were analyzed using Microsoft Excel program, and post-test analysis using Bonferroni multiple comparison test was performed to investigate the differences between the groups. p<0.001 was considered statistically significant, and expressed as *; p<0.001 to compare with cisplatin.

renal cells [2] = experiment: Measurement of ROS generation (DCF-DA); settings: single treatment, after 24 hours; based on 100% ROS generation of the control group; FIGS. 4a to 4e
Procedure: In order to measure antioxidant effect of the Amomi Rotundus Fructus extract and the fraction thereof in renal cells, ROS generation test was performed. First, renal cells were seeded at a density of 1×10^5 cells per well of 96-well plate. After 24 hours, the cells were pre-treated with 100 μg of the Amomi Rotundus Fructus extract. 2 hours after treatment, cisplatin was treated at a final concentration of 25 μg/ml, followed by culture for 24 hours. DCF-DA dissolved in PBS was treated in the dark according to the treatment concentration of DCF-DA and the reaction time which were determined by historical data and preliminary experiment, and reaction was allowed for 5 hours under basic culture conditions. At the time point of 0, 4, 8, 12, 16, 20, 24 hr, end-point fluorescence wavelength at Ex: 485 nm and Em: 528 nm was measured at S=50.

renal cells [3] = experiment: Measurement of GSH content; settings: single treatment of cisplatin, culture 24 hours; FIGS. 5a to 5e
Procedure: Because GSH level is known as an index to evaluate a cell-protecting effect on drug-induced cellular injury, GSH level was measured to examine the cell-protecting effect of the Amomi Rotundus Fructus extract or the fraction thereof against cisplatin. The GSH levels were determined by monochlorobimane, and experiments for measuring GSH content were performed using the kidney tissues with reference to the conventional method of Fernandez-Checa and Kaplowitz. The number of cells, in which GSH is detectable, was determined by historical data and preliminary experiment, and 2×10^6 cells were seeded to each well of culture plate. After culture for 24 hours, the dilution fold of the final concentration of the drug determined as an active drug was considered and calculated, based on the results of MTT Assay and crystal violet Assay. […] Centrifugation was carried out at 10,000 rpm for 15 minutes, and then the supernatant was collected and used for BCA protein quantification. […] End-point fluorescence wavelength at Ex: 360 nm and Em: 460 nm was measured at S=70. Data of the experimental results were analyzed using Microsoft Excel program, and post-test analysis using Bonferroni multiple comparison test was performed to investigate the differences between the groups. p<0.001 was considered statistically significant.

**Q.** Which cell viability (renal cells [1]; pre-treatment 50, 100, 200 μg/ml, cisplatin 25 μg/ml after 2 hours, culture 24 hours, based on 100% cell viability of the control group, FIGS. 2a to 2e) does the source give for `N.N.[Cl][Pt][Cl]` [cisplatin, cis-diaminedichloroplatinum II] here?
**A.** remarkably reduced

**Q.** And the cell activity (renal cells [1]; single treatment, based on 100% cell activity of the control group, FIGS. 3a to 3e)?
**A.** ≤ 40%

**Q.** What about the p53 expression level (p53) of the same compound?
**A.** remarkably increased

**Q.** What about the ROS generation (renal cells [2]) of the same compound?
**A.** ≥ 170%

**Q.** What about the GSH content (renal cells [3]) of the same compound?
**A.** reduced
